Laboratory results from the supplement of paper PMC8988213.
Structures can show the parent of a compound that is named as a salt.

What was measured:
[1] = tested on: ID188 patient-derived PDAC 2D line (pre-FOLFIRINOX); test: normalised area under dose-response curve (viability relative to DMSO, 7 doses up to 10 µM) (fraction (AUC)); higher = less sensitive (more viability retained); conditions: 72 h; top dose: 10 µM
Summary of the method: (§1)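 Patient-derived 2D PDAC cells grown out from organoids were seeded robotically at 1,500–3,000 cells/well in 96-well plates and incubated overnight at 37°C, 5% CO2. SelleckChem library compounds were added at seven concentrations (3-fold dilution series, highest 10 µM) for 72 h. CellTiter-Glo luminescence was read after 10 min. Viability was normalised to the DMSO control, and area under the dose-response curve was derived with the GRmetrics R package.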

[2] = tested on: ID211 patient-derived PDAC 2D line (post-FOLFIRINOX); test: as above; conditions: 72 h; top dose: 10 µM
Summary of the method: as §1

Row | Compound | normalised area under dose-response curve [1] | normalised area under dose-response curve [2]
1 | Cc1nn(C)c2c1C(c1ccc(C(F)(F)F)cc1)C(C#N)=C(N)O2 (stereo not given) [BQU57] | 0.933 | 0.869
2 | CC(C)(O)CNc1ncc(-c2ccnc(Nc3ccnc(Cl)c3)n2)c(CC2CC2)n1 [VPS34-IN1] | 0.949 | 0.824
3 | CCn1c2ccccc2c2cc(CNCc3ccccc3OC)ccc21 [HLCL-61 HCL] | 0.957 | 0.856
4 | Cc1nc(Nc2ncc(C(=O)Nc3c(C)cccc3Cl)s2)cc(N2CCN(CCO)CC2)n1 [Dasatinib hydrochloride] | 0.377 | 0.468
5 | C[C@@H]1COCCN1c1cc(C2([S@](C)(=N)=O)CC2)nc(-c2cc[nH]c3nccc2-3)n1 [AZD6738] | 0.805 | 0.749
6 | C[C@@H]1CCN(C(=O)CC#N)C[C@@H]1N(C)c1ncnc2[nH]ccc12 | 0.759 | 0.881
7 | O=C(NNc1ccccc1)c1ccncc1 | 0.961 | 0.899
8 | Cc1nnc(C(C)C)n1C1C[C@H]2CC[C@@H](C1)N2CC[C@H](NC(=O)C1CCC(F)(F)CC1)c1ccccc1 (stereo in doubt) [Maraviroc] | 1 | 0.865
9 | O=c1[nH]cc(F)c(=O)[nH]1 [Fluorouracil (5-Fluoracil, 5-FU)] | 0.854 | 0.804
10 | CC(Nc1nc(N2CCCC2)nc2ccccc12)c1ccccc1 (stereo not given) [Importazole] | 0.956 | 0.849
11 | O=C(O)C(Cc1ccccc1[N+](=O)[O-])=NNc1nc(-c2ccc(Cl)c(Cl)c2)cs1 (mixture of isomers) [4EGI-1] | 0.549 | 0.889
12 | NS(=O)(=O)OC[C@@H]1C[C@@H](n2ccc3c(N[C@H]4CCc5ccccc54)ncnc32)C[C@@H]1O [Pevonedistat (MLN4924)] | 0.825 | 0.589
13 | COc1cc2ncnc(Oc3cccc(NC(=O)Nc4cc(C(C)(C)C(F)(F)F)on4)c3)c2cc1OC | 0.948 | 0.832
14 | CCS(=O)(=O)Nc1ccc(Oc2ccc(F)cc2F)c(-c2cn(C)c(=O)c3[nH]ccc23)c1 [Mivebresib(ABBV-075)] | 0.666 | 0.538
15 | CCCCc1nc2cc(/C=C/C(=O)NO)ccc2n1CCN(CC)CC [Pracinostat (SB939)] | 0.778 | 0.799
16 | COc1cc(-n2c(=S)[nH]c3ccccc3c2=O)c(Cl)cc1Cl [Mdivi-1] | 0.885 | 0.957
17 | N[C@@H]1CCCN(c2c(/C=C3\SC(=O)NC3=O)cccc2-c2ccccc2)C1 [AZD1208] | 0.958 | 0.841
18 | COc1cc(OC)c2c(=O)[nH]c(-c3cc(C)c(OCCO)c(C)c3)nc2c1 [Apabetalone (RVX-208)] | 0.949 | 0.837
19 | Nc1cccc(S(=O)(=O)N2CCCN(S(=O)(=O)c3ccc4c(c3)OCCO4)CC2)c1 [DASA-58] | 0.918 | 0.808
20 | Cc1ccc(C(=O)Nc2ccc(CN3CCN(C)CC3)c(C(F)(F)F)c2)cc1C#Cc1cnc2cccnn12 | 0.782 | 0.696
21 | Cn1cc(-c2cnn3c(N)c(Br)c([C@@H]4CCCNC4)nc23)cn1 | 0.873 | 0.9
22 | CC1(C)CCC(CN2CCN(c3ccc(C(=O)NS(=O)(=O)c4ccc(NCC5CCOCC5)c([N+](=O)[O-])c4)c(Oc4cnc5[nH]ccc5c4)c3)CC2)=C(c2ccc(Cl)cc2)C1 [Venetoclax (ABT-199, GDC-0199)] | 0.928 | 0.887
23 | NC(=O)[C@@H](CCC(F)(F)F)N(Cc1ccc(-c2ncon2)cc1F)S(=O)(=O)c1ccc(Cl)cc1 | 0.882 | 0.77
24 | Cc1ccc(S(=O)(=O)Cc2nc(-c3ccc(C(=O)NCc4cccnc4)cc3)oc2C)cc1 | 0.358 | 0.275
25 | Cn1cnc2c(F)c(Nc3ccc(Br)cc3Cl)c(C(=O)NOCCO)cc21 [Selumetinib (AZD6244)] | 0.676 | 0.492
26 | O=c1cc(-c2ccc(O)c(O)c2)oc2cc(O)cc(O)c12 [Luteolin] | 0.82 | 0.754
27 | C/C(=N\NC(=S)N1CCC1)c1ccccn1 | 0.366 | 0.138
28 | Nc1ncn([C@H]2C[C@H](O)[C@@H](CO)O2)c(=O)n1 [Decitabine] | 0.909 | 0.82

Row | Compound | normalised area under dose-response curve [1] | normalised area under dose-response curve [2]
29 | CN1CCN(c2ccc(C(=O)Nc3n[nH]c4ccc(Cc5cc(F)cc(F)c5)cc34)c(NC3CCOCC3)c2)CC1 [Entrectinib (RXDX-101)] | 0.813 | 0.706
30 | Cc1c(CN2CCC(Nc3ncnc4sc(CC(F)(F)F)cc34)CC2)ccc2c1cc(C#N)n2Cc1cn[nH]c1 [MI-503] | 0.871 | 0.805
31 | N#Cc1c(O)c2c(-c3ccc(-c4ccccc4O)cc3)csc2[nH]c1=O | 0.977 | 0.782
32 | CS(=O)(=O)N1CCN(Cc2cc3nc(-c4cccc5[nH]ncc45)nc(N4CCOCC4)c3s2)CC1 [Pictilisib (GDC-0941)] | 0.683 | 0.596
33 | CNC(=O)c1ccccc1Sc1ccc2c(/C=C/c3ccccn3)n[nH]c2c1 [Axitinib] | 0.898 | 0.857
34 | CCS(=O)(=O)N1CCC([C@@H](C)n2c(C)c(C(=O)NCc3c(OC)cc(C)[nH]c3=O)c3ccccc32)CC1 [CPI-169] | 0.924 | 0.874
35 | c1ccc(-c2nn3c(c2-c2ccnc4cc(OCCN5CCOCC5)ccc24)CCC3)nc1 | 0.974 | 0.861
36 | O=C(Cc1cccc(OC(F)(F)F)c1)Nc1ccc(CCCCc2nnc(NC(=O)Cc3ccccn3)s2)nn1 [CB-839] | 0.596 | 0.597
37 | O=C(CBr)N1CC([N+](=O)[O-])([N+](=O)[O-])C1 [RRx-001] | 0.915 | 0.843
38 | Cc1cccc(CC(=O)N2CCc3c2ccc(-c2cn(C)c4ncnc(N)c24)c3F)n1 | 0.87 | 0.959
39 | Cc1nc(Nc2n[nH]c3c2CN(C(=O)N[C@H](CN(C)C)c2ccccc2)C3(C)C)c2sccc2n1 | 0.578 | 0.551
40 | CC(=O)c1c(C)c2cnc(Nc3ccc(N4CCNCC4)cn3)nc2n(C2CCCC2)c1=O | 0.882 | 0.865
41 | Cc1cc(C)c(CNC(=O)c2cc(-c3ccc(N4CCN(C)CC4)nc3)cc3c2c(C)cn3C(C)C)c(=O)[nH]1 [GSK503] | 0.992 | 0.891
42 | Cc1ccc(C(=O)N(CCCN)[C@@H](c2oc3cc(Cl)ccc3c(=O)c2Cc2ccccc2)C(C)C)cc1 | 0.51 | 0.708
43 | NS(=O)(=O)NCCNc1nonc1/C(=N/O)Nc1ccc(F)c(Br)c1 | 0.924 | 0.909
44 | CCOC(=O)Nc1cc(-c2ccc(C)c(NS(C)(=O)=O)c2)nn2c(C)nnc12 [Bromosporine] | 0.878 | 0.801
45 | O=C([O-])C(Cl)Cl.[Na+] [Sodium dichloroacetate (DCA)] | 0.996 | 0.951
46 | O=c1cc(N2CCOCC2)oc2c(-c3cccc4c3sc3ccccc34)cccc12 | 0.991 | 0.878
47 | O=C(O)C(=O)CBr [Bromopyruvic acid] | 0.992 | 0.834
48 | Cn1cc(C2=C(c3cn(C4CCN(Cc5ccccn5)CC4)c4ccccc34)C(=O)NC2=O)c2ccccc21 | 0.917 | 0.933
49 | CCCN(CCC)C(=O)C1=Cc2ccc(-c3ccc(C(=O)N4CCCC4)cc3)cc2N=C(N)C1 [Motolimod (VTX-2337)] | 0.969 | 0.822
50 | CCOc1ccccc1-n1c(C(C)N2CCN(C(=O)COc3ccc(Cl)cc3)CC2)nc2ccccc2c1=O (stereo not given) [Erastin] | 0.856 | 0.813
51 | COc1cc(N2CCN(C)CC2)ccc1Nc1nccc(-c2cn(C)c3cnccc23)n1 [AZ191] | 0.971 | 0.867
52 | O=S(=O)(N=Cc1c(O)ccc2ccccc12)c1cccs1 | 0.913 | 0.941
53 | Cc1sc2c(c1C)C(c1ccc(Cl)cc1)=N[C@@H](CC(N)=O)c1nnc(C)n1-2 [CPI-203] | 0.877 | 0.597
54 | O=C(CCNC(=O)c1ccc(OC(F)(F)F)cc1)N[C@@H]1CCCc2ccccc21 [ML390] | 0.983 | 0.788
55 | CNC(=O)c1ccc(Nc2ncc(C(F)(F)F)c(NCc3nccnc3N(C)S(C)(=O)=O)n2)cc1 | 0.897 | 0.761
